Assay results: ChEMBL document CHEMBL1821607, “N-Arylalkyl-2-azaadamantanes as cage-expanded polycarbocyclic sigma (σ) receptor ligands” (Bioorg Med Chem Lett, 2011)

Tests used:
[1] = molecular target: T1, Muscarinic acetylcholine receptor M1 (Homo sapiens) (UniProt P11229); assay: Inhibition of M1 muscarinic receptor at 10 uM by NIMH PDSP
T1 sequence (whole entry): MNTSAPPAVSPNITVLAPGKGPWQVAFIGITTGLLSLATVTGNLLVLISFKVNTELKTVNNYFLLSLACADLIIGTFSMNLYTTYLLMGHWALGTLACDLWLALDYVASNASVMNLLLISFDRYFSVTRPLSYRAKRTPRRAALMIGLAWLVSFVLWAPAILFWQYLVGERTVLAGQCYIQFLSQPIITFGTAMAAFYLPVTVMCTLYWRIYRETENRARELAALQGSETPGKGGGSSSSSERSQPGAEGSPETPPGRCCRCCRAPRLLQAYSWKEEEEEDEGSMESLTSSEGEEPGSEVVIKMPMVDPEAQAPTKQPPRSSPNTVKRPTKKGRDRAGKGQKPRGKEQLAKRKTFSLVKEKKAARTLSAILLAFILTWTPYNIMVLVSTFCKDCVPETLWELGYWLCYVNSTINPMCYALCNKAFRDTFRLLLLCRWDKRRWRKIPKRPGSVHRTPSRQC

[2] = molecular target: Beta-3 adrenergic receptor (Homo sapiens) (UniProt P13945); assay: Inhibition of beta-3 adrenergic receptor at 10 uM by NIMH PDSP
[3] = molecular target: D(3) dopamine receptor (Homo sapiens) (UniProt P35462); assay: Inhibition of D3 dopamine receptor at 10 uM by NIMH PDSP
D(1A) dopamine receptor = D(1A) dopamine receptor (Homo sapiens, UniProt P21728); assay: Inhibition of D1 dopamine receptor at 10 uM by NIMH PDSP
[4] = molecular target: Beta-1 adrenergic receptor (Homo sapiens) (UniProt P08588); assay: Inhibition of beta-1 adrenergic receptor at 10 uM by NIMH PDSP
[5] = molecular target: Histamine H3 receptor (Homo sapiens) (UniProt Q9Y5N1); assay: Inhibition of H3 receptor at 10 uM by NIMH PDSP
[6] = molecular target: Histamine H2 receptor (Homo sapiens) (UniProt P25021); assay: Inhibition of H2 receptor at 10 uM by NIMH PDSP
[7] = molecular target: Sodium-dependent serotonin transporter (Homo sapiens) (UniProt P31645); assay: Inhibition of SERT at 10 uM by NIMH PDSP
[8] = molecular target: 5-hydroxytryptamine receptor 1D (Homo sapiens) (UniProt P28221); assay: Inhibition of 5-HT1D receptor at 10 uM by NIMH PDSP
[9] = molecular target: D(1B) dopamine receptor (Homo sapiens) (UniProt P21918); assay: Inhibition of D5 dopamine receptor at 10 uM by NIMH PDSP
[10] = molecular target: T2, Alpha-2C adrenergic receptor (Homo sapiens) (UniProt P18825); assay: Inhibition of alpha-2C adrenergic receptor at 10 uM by NIMH PDSP
T2 sequence (whole entry): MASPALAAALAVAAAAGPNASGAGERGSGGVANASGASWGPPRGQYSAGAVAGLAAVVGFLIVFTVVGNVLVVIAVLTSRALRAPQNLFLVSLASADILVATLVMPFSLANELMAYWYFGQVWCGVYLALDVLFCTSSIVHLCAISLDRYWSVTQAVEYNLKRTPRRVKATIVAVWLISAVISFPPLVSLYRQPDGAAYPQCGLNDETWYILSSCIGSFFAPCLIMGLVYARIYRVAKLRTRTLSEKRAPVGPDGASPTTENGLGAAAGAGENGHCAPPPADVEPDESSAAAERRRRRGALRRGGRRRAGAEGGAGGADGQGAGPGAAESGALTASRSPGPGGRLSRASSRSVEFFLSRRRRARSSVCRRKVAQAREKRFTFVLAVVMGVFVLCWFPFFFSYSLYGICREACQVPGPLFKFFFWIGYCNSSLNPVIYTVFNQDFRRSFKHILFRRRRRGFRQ

[11] = molecular target: 5-hydroxytryptamine receptor 2A (Homo sapiens) (UniProt P28223); assay: Inhibition of 5-HT2A receptor at 10 uM by NIMH PDSP
[12] = Displacement of [3H]DTG from sigma 2 receptor in rat liver homogenates in presence of sigma-1 receptor blocker (+)-pentazocine after 120 mins by liquid scintillation counting; assay type: tissue-based
[13] = molecular target: T3, Alpha-1B adrenergic receptor (Homo sapiens) (UniProt P35368); assay: Inhibition of alpha-1B adrenergic receptor at 10 uM by NIMH PDSP
T3 sequence (whole entry): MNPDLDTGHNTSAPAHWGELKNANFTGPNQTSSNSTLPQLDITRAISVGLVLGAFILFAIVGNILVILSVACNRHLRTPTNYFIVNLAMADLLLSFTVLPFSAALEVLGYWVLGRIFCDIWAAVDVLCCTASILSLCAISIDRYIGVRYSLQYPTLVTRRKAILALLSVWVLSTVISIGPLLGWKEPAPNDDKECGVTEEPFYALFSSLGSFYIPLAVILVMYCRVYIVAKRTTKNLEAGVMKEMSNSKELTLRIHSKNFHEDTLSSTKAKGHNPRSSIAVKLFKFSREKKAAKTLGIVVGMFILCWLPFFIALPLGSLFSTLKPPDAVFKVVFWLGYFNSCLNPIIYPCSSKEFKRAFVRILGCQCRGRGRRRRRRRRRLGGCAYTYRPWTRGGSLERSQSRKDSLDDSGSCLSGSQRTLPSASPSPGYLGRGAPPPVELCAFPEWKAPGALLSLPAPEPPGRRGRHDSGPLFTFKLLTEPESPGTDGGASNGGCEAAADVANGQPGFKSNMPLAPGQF

[14] = molecular target: 5-hydroxytryptamine receptor 1B (Homo sapiens) (UniProt P28222); assay: Inhibition of 5-HT1B receptor at 10 uM by NIMH PDSP
[15] = molecular target: T4, Alpha-2A adrenergic receptor (Homo sapiens) (UniProt P08913); assay: Inhibition of alpha-2A adrenergic receptor at 10 uM by NIMH PDSP
T4 sequence (whole entry): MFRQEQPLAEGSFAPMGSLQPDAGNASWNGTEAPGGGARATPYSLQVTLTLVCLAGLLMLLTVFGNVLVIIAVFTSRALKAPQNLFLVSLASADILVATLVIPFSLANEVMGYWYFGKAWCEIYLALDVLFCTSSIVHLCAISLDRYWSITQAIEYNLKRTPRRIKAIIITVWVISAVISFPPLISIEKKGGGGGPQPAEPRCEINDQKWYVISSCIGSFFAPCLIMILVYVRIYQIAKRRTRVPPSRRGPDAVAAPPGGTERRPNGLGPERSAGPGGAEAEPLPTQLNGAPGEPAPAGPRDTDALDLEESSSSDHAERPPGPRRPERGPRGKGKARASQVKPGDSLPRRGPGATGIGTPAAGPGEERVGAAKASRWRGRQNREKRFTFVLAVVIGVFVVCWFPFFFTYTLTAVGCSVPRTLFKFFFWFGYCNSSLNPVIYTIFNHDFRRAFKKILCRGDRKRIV

5-hydroxytryptamine receptor 2A (Homo sapiens), sequence (P28223 whole entry): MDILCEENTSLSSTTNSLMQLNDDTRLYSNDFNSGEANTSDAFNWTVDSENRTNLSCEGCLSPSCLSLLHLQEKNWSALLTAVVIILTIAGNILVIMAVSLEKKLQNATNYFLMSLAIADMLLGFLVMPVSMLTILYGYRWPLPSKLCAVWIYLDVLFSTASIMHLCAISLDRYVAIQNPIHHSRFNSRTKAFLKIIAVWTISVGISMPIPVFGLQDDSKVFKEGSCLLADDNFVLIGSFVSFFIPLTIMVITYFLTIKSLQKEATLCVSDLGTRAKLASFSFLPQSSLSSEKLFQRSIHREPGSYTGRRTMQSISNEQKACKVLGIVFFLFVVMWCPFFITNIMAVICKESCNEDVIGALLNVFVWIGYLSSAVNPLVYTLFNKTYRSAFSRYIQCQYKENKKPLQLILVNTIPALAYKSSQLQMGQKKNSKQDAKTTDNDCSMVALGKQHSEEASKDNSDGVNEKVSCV
Beta-1 adrenergic receptor (Homo sapiens), sequence (P08588 whole entry, looked up): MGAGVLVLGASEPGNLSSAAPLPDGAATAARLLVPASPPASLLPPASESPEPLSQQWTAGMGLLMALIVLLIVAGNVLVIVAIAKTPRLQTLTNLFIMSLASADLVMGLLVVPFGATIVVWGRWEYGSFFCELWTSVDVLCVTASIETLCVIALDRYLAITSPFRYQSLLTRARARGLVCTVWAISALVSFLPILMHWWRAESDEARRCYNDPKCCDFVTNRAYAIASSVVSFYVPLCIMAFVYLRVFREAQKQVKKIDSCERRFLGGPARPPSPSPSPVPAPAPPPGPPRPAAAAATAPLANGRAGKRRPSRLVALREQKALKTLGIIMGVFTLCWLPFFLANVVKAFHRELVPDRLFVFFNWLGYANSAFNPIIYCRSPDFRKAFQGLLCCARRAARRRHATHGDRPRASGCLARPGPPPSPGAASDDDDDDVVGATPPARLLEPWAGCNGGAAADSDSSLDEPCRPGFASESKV
D(1A) dopamine receptor, sequence (P21728 whole entry): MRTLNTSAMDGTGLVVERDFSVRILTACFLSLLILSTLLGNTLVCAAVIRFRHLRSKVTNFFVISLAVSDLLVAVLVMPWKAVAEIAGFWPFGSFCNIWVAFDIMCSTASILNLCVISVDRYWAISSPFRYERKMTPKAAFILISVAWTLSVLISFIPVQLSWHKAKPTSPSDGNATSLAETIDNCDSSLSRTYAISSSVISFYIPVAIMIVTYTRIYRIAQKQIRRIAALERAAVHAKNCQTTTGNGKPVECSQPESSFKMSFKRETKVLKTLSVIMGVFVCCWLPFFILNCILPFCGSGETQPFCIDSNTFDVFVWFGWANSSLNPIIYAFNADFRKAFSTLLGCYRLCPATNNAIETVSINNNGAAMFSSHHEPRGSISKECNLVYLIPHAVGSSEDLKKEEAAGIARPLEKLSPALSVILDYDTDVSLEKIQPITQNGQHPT
Beta-3 adrenergic receptor (Homo sapiens), sequence (P13945 whole entry, looked up): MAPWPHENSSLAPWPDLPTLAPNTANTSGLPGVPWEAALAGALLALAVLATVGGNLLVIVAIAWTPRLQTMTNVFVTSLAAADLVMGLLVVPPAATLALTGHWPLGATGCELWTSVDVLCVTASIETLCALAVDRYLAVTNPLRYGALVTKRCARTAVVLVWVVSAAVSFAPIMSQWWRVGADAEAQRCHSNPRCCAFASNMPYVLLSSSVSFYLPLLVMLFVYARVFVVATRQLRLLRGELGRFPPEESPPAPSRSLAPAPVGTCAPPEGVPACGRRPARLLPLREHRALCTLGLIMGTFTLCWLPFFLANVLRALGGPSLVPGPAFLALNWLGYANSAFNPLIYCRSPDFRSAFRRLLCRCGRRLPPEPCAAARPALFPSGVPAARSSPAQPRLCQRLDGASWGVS
Histamine H2 receptor (Homo sapiens), sequence (P25021 whole entry): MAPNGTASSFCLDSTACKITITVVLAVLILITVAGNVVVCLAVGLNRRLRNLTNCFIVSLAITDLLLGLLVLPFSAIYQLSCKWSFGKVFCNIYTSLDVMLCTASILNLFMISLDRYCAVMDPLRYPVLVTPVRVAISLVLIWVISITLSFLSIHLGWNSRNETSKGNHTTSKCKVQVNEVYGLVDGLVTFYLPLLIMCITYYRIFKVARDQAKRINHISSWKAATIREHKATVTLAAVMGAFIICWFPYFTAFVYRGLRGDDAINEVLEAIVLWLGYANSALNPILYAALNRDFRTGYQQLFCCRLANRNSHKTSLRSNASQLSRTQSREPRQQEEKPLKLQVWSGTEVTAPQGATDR
Sodium-dependent serotonin transporter (Homo sapiens), sequence (P31645 whole entry, looked up): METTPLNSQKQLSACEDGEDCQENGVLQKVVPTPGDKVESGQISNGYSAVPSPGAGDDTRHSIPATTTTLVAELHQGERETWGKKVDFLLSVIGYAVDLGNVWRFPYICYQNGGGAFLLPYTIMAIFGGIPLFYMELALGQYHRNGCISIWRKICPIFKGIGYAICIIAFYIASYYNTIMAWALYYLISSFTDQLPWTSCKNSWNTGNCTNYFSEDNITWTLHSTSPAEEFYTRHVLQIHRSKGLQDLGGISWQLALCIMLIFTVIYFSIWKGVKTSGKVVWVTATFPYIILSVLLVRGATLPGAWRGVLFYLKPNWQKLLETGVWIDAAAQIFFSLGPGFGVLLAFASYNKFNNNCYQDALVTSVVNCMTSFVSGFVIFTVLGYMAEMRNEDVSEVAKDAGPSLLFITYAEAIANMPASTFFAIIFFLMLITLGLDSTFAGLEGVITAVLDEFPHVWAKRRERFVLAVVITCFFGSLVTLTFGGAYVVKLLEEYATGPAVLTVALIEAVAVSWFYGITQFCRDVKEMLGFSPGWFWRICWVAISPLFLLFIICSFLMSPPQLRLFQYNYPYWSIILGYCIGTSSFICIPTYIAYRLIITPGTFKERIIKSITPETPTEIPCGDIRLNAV
D(1B) dopamine receptor (Homo sapiens), sequence (P21918 whole entry): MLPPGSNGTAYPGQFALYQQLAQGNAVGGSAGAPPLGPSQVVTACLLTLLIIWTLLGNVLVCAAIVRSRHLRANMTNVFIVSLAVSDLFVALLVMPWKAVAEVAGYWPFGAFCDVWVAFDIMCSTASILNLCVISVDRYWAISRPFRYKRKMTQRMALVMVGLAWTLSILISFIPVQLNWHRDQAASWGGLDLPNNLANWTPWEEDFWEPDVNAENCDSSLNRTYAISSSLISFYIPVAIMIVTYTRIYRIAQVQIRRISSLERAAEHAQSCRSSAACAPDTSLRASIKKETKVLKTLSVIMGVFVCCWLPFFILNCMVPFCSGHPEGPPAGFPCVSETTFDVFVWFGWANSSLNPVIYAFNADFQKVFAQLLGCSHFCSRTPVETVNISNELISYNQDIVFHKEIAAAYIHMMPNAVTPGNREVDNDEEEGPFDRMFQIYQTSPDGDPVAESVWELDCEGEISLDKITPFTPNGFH
D(3) dopamine receptor (Homo sapiens), sequence (P35462 whole entry): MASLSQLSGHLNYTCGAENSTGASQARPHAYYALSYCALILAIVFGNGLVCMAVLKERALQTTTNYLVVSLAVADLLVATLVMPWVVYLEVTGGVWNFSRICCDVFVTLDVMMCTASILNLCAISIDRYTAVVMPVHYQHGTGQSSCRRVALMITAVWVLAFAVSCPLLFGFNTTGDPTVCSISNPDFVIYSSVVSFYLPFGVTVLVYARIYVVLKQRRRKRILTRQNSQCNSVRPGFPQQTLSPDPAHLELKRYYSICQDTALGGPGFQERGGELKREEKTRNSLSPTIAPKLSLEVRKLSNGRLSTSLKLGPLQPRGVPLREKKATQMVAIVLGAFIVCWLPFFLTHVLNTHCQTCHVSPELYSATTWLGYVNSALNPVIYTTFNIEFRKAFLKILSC
5-hydroxytryptamine receptor 1B (Homo sapiens), sequence (P28222 whole entry): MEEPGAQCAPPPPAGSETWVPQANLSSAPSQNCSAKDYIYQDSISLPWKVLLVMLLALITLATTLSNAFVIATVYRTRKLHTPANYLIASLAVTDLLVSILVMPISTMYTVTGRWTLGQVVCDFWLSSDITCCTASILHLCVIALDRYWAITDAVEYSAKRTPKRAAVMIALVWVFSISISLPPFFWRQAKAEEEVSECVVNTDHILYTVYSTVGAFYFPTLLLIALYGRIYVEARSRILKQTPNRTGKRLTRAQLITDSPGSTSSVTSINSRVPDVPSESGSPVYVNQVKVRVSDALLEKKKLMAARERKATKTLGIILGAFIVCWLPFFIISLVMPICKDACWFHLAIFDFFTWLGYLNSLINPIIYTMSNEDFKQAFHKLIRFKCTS
Histamine H3 receptor (Homo sapiens), sequence (Q9Y5N1 whole entry): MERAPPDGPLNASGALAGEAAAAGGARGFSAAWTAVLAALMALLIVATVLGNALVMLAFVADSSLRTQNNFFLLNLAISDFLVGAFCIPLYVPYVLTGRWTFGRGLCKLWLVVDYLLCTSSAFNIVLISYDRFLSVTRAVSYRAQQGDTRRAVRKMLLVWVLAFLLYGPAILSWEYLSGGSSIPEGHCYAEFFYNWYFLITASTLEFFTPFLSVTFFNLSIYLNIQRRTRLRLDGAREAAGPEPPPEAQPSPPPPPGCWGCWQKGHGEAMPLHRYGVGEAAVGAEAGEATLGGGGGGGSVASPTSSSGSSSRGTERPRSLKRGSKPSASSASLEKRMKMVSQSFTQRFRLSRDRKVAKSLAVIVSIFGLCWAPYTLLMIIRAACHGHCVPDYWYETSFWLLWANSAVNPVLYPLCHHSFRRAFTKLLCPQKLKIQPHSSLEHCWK
5-hydroxytryptamine receptor 1D (Homo sapiens), sequence (P28221 whole entry): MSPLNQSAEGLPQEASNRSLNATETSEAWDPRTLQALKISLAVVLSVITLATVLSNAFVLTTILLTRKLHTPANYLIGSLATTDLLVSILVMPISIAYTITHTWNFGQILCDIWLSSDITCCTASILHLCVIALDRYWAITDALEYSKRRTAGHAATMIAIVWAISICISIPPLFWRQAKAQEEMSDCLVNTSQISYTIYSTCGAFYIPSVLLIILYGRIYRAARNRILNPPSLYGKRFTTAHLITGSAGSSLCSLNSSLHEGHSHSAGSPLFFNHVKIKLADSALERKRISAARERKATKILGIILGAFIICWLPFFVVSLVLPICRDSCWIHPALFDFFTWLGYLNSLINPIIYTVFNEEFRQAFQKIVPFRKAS

Row | SMILES | inhibition [1] | inhibition [2] | inhibition [3] | inhibition (D(1A) dopamine receptor) | inhibition [4] | inhibition [5] | inhibition [6] | inhibition [7] | inhibition [8] | inhibition [9] | inhibition [10] | inhibition [11] | Ki [12] | inhibition [13] | inhibition [14] | inhibition [15]
1 | OC12CC3CC(CC(C3)N1Cc1ccccc1)C2 (racemic) | < 50% | < 50% | < 50% | < 50% | < 50% | < 50% | < 50% | < 50% | < 50% | < 50% | < 50% | < 50% | 1020 nM | < 50% | < 50% | –
2 | c1ccc(CN2C3CC4CC(C3)CC2C4)cc1 | < 50% | < 50% | < 50% | < 50% | < 50% | < 50% | < 50% | < 50% | < 50% | < 50% | < 50% | < 50% | 95 nM | < 50% | < 50% | < 50%
3 | OC12CC3CC(CC(C3)N1Cc1cccc(F)c1)C2 (racemic) | < 50% | < 50% | < 50% | < 50% | < 50% | < 50% | < 50% | < 50% | < 50% | < 50% | < 50% | < 50% | 705 nM | < 50% | < 50% | < 50%
4 | Fc1cccc(CN2C3CC4CC(C3)CC2C4)c1 | < 50% | < 50% | < 50% | – | < 50% | < 50% | < 50% | < 50% | < 50% | < 50% | < 50% | < 50% | 132 nM | < 50% | < 50% | < 50%
